Data as given in US8394848B2, “Compounds that modulate intracellular calcium” (Calcimedica, Inc., priority 2008, dated 2013).

system: JR251 or RBL cells; experiment: Store-operated calcium entry, either JR251 or RBL cells, or both; format: cell-based
In short: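 FLIPR calcium-entry readout in fluo-4-loaded cells held in Ca2+-free HBSS before calcium add-back. For RBL-2H3, store depletion used thapsigargin for 25 min after a 5 min compound pre-incubation, and IC50 was based on the 7 s Upslope. For Orai1/STIM1 stable cells, compound was pre-incubated 30 min and IC50 was based on Peak-Basal.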

IC50, < 10 µM:
N#Cc1ccc(-c2csc(NC(=O)c3cc4sccc4s3)c2C(=O)O)cc1 [4-(4-cyanophenyl)-2-(thieno[3,2-b]thiophene-2-carboxamido)thiophene-3-carboxylic acid], O=C(O)c1c(-c2ccc(Br)cc2)csc1NC(=O)C(F)Cc1cc(F)c(F)cc1Cl (centres unmarked) [4-(4-bromophenyl)-2-(3-(2-chloro-4,5-difluorophenyl)-2-fluoropropanamido)thiophene-3-carboxylic acid], NC(=O)c1c(-c2ccc(Br)cc2)csc1-n1c(C(=O)O)nc2ccccc21 [N-(4-(4-bromophenyl)-3-carbamoylthiophen-2-yl)-1H-benzo[d]imidazole-2-carboxylic acid], O=C(CC(c1ccccc1)c1ccccc1)Nc1scc(-c2ccc(Cl)cc2)c1C(=O)O [4-(4-chlorophenyl)-2-(3,3-diphenylpropanamido)thiophene-3-carboxylic acid], Cc1ccc(-c2csc(NC(=O)c3nc4cc(Br)ccc4o3)c2C(=O)O)c(F)c1F [2-(5-bromobenzo[d]oxazole-2-carboxamido)-4-(2,3-difluoro-4-methylphenyl)thiophene-3-carboxylic acid], N#Cc1ccccc1CCC(=O)Nc1scc(-c2ccc(Cl)cc2)c1C(=O)O [4-(4-chlorophenyl)-2-(3-(2-cyanophenyl)propanamido)thiophene-3-carboxylic acid], O=C(Nc1scc(-c2ccc(Br)cc2)c1C(=O)O)c1nc2ccccc2s1 [2-(benzo[d]thiazole-2-carboxamido)-4-(4-bromophenyl)thiophene-3-carboxylic acid], COc1cc(-c2csc(NC(=O)c3ccc4snnc4c3)c2C(=O)O)ccc1Cl [2-(benzo[d][1,2,3]thiadiazole-5-carboxamido)-4-(4-chloro-3-methoxyphenyl)thiophene-3-carboxylic acid], CC(C)C(C(=O)Nc1scc(-c2ccc(Cl)c(Cl)c2)c1C(=O)O)c1ccc(Cl)cc1 (centres unmarked) [2-(2-(4-chlorophenyl)-3-methylbutanamido)-4-(3,4-dichlorophenyl)thiophene-3-carboxylic acid], COc1ccc(C(=O)Nc2scc(-c3ccc(Cl)cc3)c2C(=O)O)c(OC)n1 [4-(4-chlorophenyl)-2-(2,6-dimethoxynicotinamido)thiophene-3-carboxylic acid], N#C/C(=C\c1ccco1)C(=O)Nc1scc(-c2ccc(Cl)cc2)c1C(=O)O [(E)-4-(4-chlorophenyl)-2-(2-cyano-3-(furan-2-yl)acrylamido)thiophene-3-carboxylic acid], O=C(Nc1scc(-c2ccc(Cl)cc2)c1C(=O)O)c1ccc([N+](=O)[O-])o1 [4-(4-chlorophenyl)-2-(5-nitrofuran-2-carboxamido)thiophene-3-carboxylic acid], O=C(Nc1scc(-c2ccc(Cl)cc2)c1C(=O)O)c1nc2c(O)cccc2o1 [4-(4-chlorophenyl)-2-(4-hydroxybenzo[d]oxazole-2-carboxamido)thiophene-3-carboxylic acid], Cc1ccc(-c2csc(NC(=O)c3cc4cccc(O)c4o3)c2C(=O)O)c(F)c1F [4-(2,3-difluoro-4-methylphenyl)-2-(7-hydroxybenzofuran-2-carboxamido)thiophene-3-carboxylic acid], O=C(NCC1CCCCC1)Nc1scc(-c2ccc(Cl)cc2)c1C(=O)O [4-(4-chlorophenyl)-2-(3-(cyclohexylmethyl)ureido)thiophene-3-carboxylic acid], COc1cccc2c1CC(C(=O)Nc1scc(-c3ccc(Br)cc3)c1C(=O)O)CC2 (centres unmarked) [4-(4-bromophenyl)-2-(8-methoxy-1,2,3,4-tetrahydronaphthalene-2-carboxamido)thiophene-3-carboxylic acid], O=C(O)c1c(-c2ccc(Cl)cc2)csc1NC(=O)C(F)Cc1cc(F)c(F)cc1Cl (centres unmarked) [2-(3-(2-chloro-4,5-difluorophenyl)-2-fluoropropanamido)-4-(4-chlorophenyl)thiophene-3-carboxylic acid], O=C(Nc1scc(-c2cc3cccc(O)c3o2)c1C(=O)O)c1cc2ccccc2o1 [2-(benzofuran-2-carboxamido)-4-(7-hydroxybenzofuran-2-yl)thiophene-3-carboxylic acid], O=C(Nc1scc(-c2cc(F)c(F)c(F)c2)c1C(=O)O)c1nc2ccccc2o1 [2-(benzo[d]oxazole-2-carboxamido)-4-(3,4,5-trifluorophenyl)thiophene-3-carboxylic acid], Cc1ccc(-c2csc(NC(=O)c3cccs3)c2C(=O)O)cc1 [2-(thiophene-2-carboxamido)-4-p-tolylthiophene-3-carboxylic acid], O=C(Cc1ccccc1)Nc1scc(-c2ccc(Cl)cc2)c1C(=O)O [4-(4-chlorophenyl)-2-(2-phenylacetamido)thiophene-3-carboxylic acid], COc1ccc2oc(-c3csc(NC(=O)c4cc5ccccc5o4)c3C(=O)O)cc2c1 [2-(benzofuran-2-carboxamido)-4-(5-methoxybenzofuran-2-yl)thiophene-3-carboxylic acid], O=C(NCc1ccccc1F)Nc1scc(-c2ccc(Cl)cc2)c1C(=O)O [4-(4-chlorophenyl)-2-(3-(2-fluorobenzyl)ureido)thiophene-3-carboxylic acid], Cc1cc(C(=O)Nc2scc(-c3ccc(Br)cc3)c2C(=O)O)cc(O)n1 [4-(4-bromophenyl)-2-(2-hydroxy-6-methylisonicotinamido)thiophene-3-carboxylic acid], O=C(Nc1scc(-c2cc3ccccc3o2)c1C(=O)O)c1cc2ccccc2o1 [2-(benzofuran-2-carboxamido)-4-(benzofuran-2-yl)thiophene-3-carboxylic acid], O=C(O)c1c(-c2ccc(Cl)cc2Cl)csc1NC(=O)C1CC1 [2-(cyclopropanecarboxamido)-4-(2,4-dichlorophenyl)thiophene-3-carboxylic acid], O=C(CSc1ccccc1)Nc1scc(-c2ccc(Cl)cc2Cl)c1C(=O)O [4-(2,4-dichlorophenyl)-2-(2-(phenylthio)acetamido)thiophene-3-carboxylic acid], Cc1cccc2ncc(C(=O)Nc3scc(-c4ccc(Cl)cc4)c3C(=O)O)nc12 [4-(4-chlorophenyl)-2-(8-methylquinoxaline-2-carboxamido)thiophene-3-carboxylic acid], Cn1nc(C(=O)Nc2scc(-c3ccc(Cl)cc3)c2C(=O)O)cc1-c1ccco1 [4-(4-chlorophenyl)-2-(5-(furan-2-yl)-1-methyl-1H-pyrazole-3-carboxamido)thiophene-3-carboxylic acid], COc1c(F)ccc(-c2csc(NC(=O)c3cc4ccccc4o3)c2C(=O)O)c1F [2-(benzofuran-2-carboxamido)-4-(2,4-difluoro-3-methoxyphenyl)thiophene-3-carboxylic acid], O=C(Nc1scc(-c2ccc(Cl)cc2)c1C(=O)O)c1cc(Cl)sc1Cl [4-(4-chlorophenyl)-2-(2,5-dichlorothiophene-3-carboxamido)thiophene-3-carboxylic acid], O=C(Nc1scc(-c2ccc(Br)cc2)c1C(=O)O)c1ccco1 [4-(4-bromophenyl)-2-(furan-2-carboxamido)thiophene-3-carboxylic acid], Cc1cc(-c2csc(NC(=O)c3nc4ccccc4o3)c2C(=O)O)c(F)cc1Cl [2-(benzo[d]oxazole-2-carboxamido)-4-(4-chloro-2-fluoro-5-methylphenyl)thiophene-3-carboxylic acid], O=C(Nc1scc(-c2ccccc2Br)c1C(=O)O)c1cccs1 [4-(2-bromophenyl)-2-(thiophene-2-carboxamido)thiophene-3-carboxylic acid], O=C(O)c1c(-c2ccc(Cl)cc2)csc1NC(=O)[C@@H](F)Cc1ccccc1Cl [(S)-4-(4-chlorophenyl)-2-(3-(2-chlorophenyl)-2-fluoropropanamido)thiophene-3-carboxylic acid], O=C(Nc1scc(-c2ccc(Cl)cc2)c1C(=O)O)c1cnc2ccccc2n1 [4-(4-chlorophenyl)-2-(quinoxaline-2-carboxamido)thiophene-3-carboxylic acid], O=C(CCCc1ccccc1)Nc1scc(-c2ccc(Cl)cc2)c1C(=O)O [4-(4-chlorophenyl)-2-(4-phenylbutanamido)thiophene-3-carboxylic acid], Cc1cccc2oc(C(=O)Nc3scc(-c4ccc(Cl)cc4)c3C(=O)O)nc12 [4-(4-chlorophenyl)-2-(4-methylbenzo[d]oxazole-2-carboxamido)thiophene-3-carboxylic acid], O=C(O)c1c(-c2ccc(Cl)cc2)csc1NC(=O)C(F)Cc1ccccc1 (centres unmarked) [4-(4-chlorophenyl)-2-(2-fluoro-3-phenylpropanamido)thiophene-3-carboxylic acid], O=C(Nc1scc(-c2cc(F)c(Cl)cc2F)c1C(=O)O)c1cc2ccccc2o1 [2-(benzofuran-2-carboxamido)-4-(4-chloro-2,5-difluorophenyl)thiophene-3-carboxylic acid], O=C(O)c1c(-c2ccc(Cl)c(Cl)c2)csc1NC(=O)C1CC1 [2-(cyclopropanecarboxamido)-4-(3,4-dichlorophenyl)thiophene-3-carboxylic acid], Cc1ccsc1C(=O)Nc1scc(-c2ccccc2Br)c1C(=O)O [4-(2-bromophenyl)-2-(3-methylthiophene-2-carboxamido)thiophene-3-carboxylic acid], O=C(Nc1scc(-c2ccc(Cl)cc2)c1C(=O)O)/C(F)=C/c1ccccc1 [(Z)-4-(4-chlorophenyl)-2-(2-fluoro-3-phenylacryl amido)thiophene-3-carboxylic acid], CC(C(=O)Nc1scc(-c2ccc(Br)cc2)c1C(=O)O)C(C)c1ccccc1 (centres unmarked) [4-(4-bromophenyl)-2-(2-methyl-3-phenylbutanamido)thiophene-3-carboxylic acid]
